Entries after “also recorded” stand apart in the source; their conditions may differ. Where two headings read alike, the source gives them in different places.
Columns and labels:
[1] = tested on: lung cancer cells overexpressing the c-Met receptor (PDX, LXFA-1647); test: ex vivo drug testing of lung cancer cells overexpressing c-Met in a 3D hydrogel array / Matrigel; assay type: cell-based, human
Text: A PEG was used as a hydrogel precursor molecule for making a non self-degradable hydrogel. As a crosslinking agent, peptides containing at least two, preferably two cysteine moieties were used which varied in their amino acid sequence, in particular with respect to the presence or absence of a RGD adhesion motif and with respect to the presence or absence of a MMP degradation sequence. A further variation that was made to some hydrogels was the attachment of a bioactive ligand comprising a RGD adhesion motif or/and a ligand selected from the group consisting of natural laminins, recombinant laminin isoforms, and biofunctional fragments thereof. Examples of suitable recombinant laminin isoforms are laminin-111, laminin-211, laminin-332, laminin-411, laminin-511, or laminin-521. An array of hydrogels varying in the above preselected features was established, by the method described above.
The mechanical properties of the hydrogels were also varied (soft (50-1000 Pa), medium (1000-2000 Pa) or hard (2000-3000 Pa) gels).
For comparison, tests were also conducted in the undefined natural-derived matrix Matrigel®.
The respective drug was added to the culture media after 1 to 8 days of culture (1 to 8 days post cell encapsulation). The drug response was measured after 5 to 10 days post-drug addition. As a preferred culture medium, a medium was preselected that is characterized by the presence of FBS (serum) or Wnt agonists such as R-spondin. According to this example, a culture medium was used that was adapted from the medium described in Sachs et al. (The EMBO Journal e 100300|2019). The preferred culture medium comprised AdDMEM/F12 medium supplemented with glutamine, Noggin, EGF, fibroblast growth factor 7 and 10 [FGF7 and FGF10], HGF, R-spondin-conditioned medium, Primocin, penicillin/streptomycin, N-acetyl-L-cysteine, Nicotinamide, A83-01, SB202190 (p38-inhibitor), Y-27632 (rock inhibitor), B27 supplement and HEPES. Target expression (c-Met and Phospho c-Met) was detected by Western-blot in corresponding growth conditions.

[2] = tested on: lung cancer cells overexpressing the EGFR receptor (PDX); test: ex vivo drug testing of lung cancer cells overexpressing EGFR in 3D hydrogel; assay type: cell-based, human
[3] = tested on: non-small cell lung cancer (NSCLC) model LXFA-1647; test: in vivo treatment of patient-derived xenograft (PDX) NSCLC model; design: species or system human; conditions: PDX NSCLC model LXFA-1647
[4] = Matrigel as matrix (comparative example 1), FIG. 1c
[5] = conditions of example 1a: soft non self-degradable PEG hydrogel without any RGD motif (responder conditions), FIG. 1b
[6] = responder conditions of example 1a (hydrogel without any RGD motif), FIG. 1e

Q: How did the “drug response (effect of treatment)” value [1, 4] turn out when `CC(=O)O[C@@]12CO[C@@H]1C[C@H](O)[C@@]1(C)C(=O)[C@H](O)C3=C(C)[C@@H](OC(=O)[C@H](O)[C@@H](NC(=O)OC(C)(C)C)c4ccccc4)C[C@@](O)([C@@H](OC(=O)c4ccccc4)[C@H]21)C3(C)C` [Docetaxel] was run?
A: The value was “an effect”.

Q: And the “drug response (effect of treatment)” value [1, 5]?
A: The value was “clearly effective”.

Q: How did the “drug response (effect of treatment)” value [2] turn out when `C#Cc1cccc(Nc2ncnc3cc(OCCOC)c(OCCOC)cc23)c1` [Erlotinib] was run?
A: The value was “clear effect”.

Q: Which “tumor growth in vivo” value [3] does the source give for `OCCn1cc(-c2cnc3nnn(Cc4ccc5ncccc5c4)c3n2)cn1` [PF-04217903] here?
A: The value was “induces tumor growth regression”.

Q: And the “drug response (effect of treatment)” value [2, 6]?
A: The value was “no effect”.

Q: What about the “drug response (effect of treatment)” value [1, 4] of the same compound?
A: Its value is “did not respond; also recorded: No effect”.

Q: And the “drug response (effect of treatment)” value [1, 5]?
A: Its value is “clearly effective”.

Q: And the “drug response (effect of treatment)” value ([1]; hydrogel with 1 mM bioactive ligand comprising a RGD motif attached (non-responder conditions, example 1b))?
A: The value was “resistant”.

Q: How did the “drug response (effect of treatment)” value [2, 6] turn out when `CC(=O)O[C@H]1C(=O)[C@@]2(C)[C@H]([C@H](OC(=O)c3ccccc3)[C@]3(O)C[C@H](OC(=O)[C@H](O)[C@@H](NC(=O)c4ccccc4)c4ccccc4)C(C)=C1C3(C)C)[C@]1(OC(C)=O)CO[C@@H]1C[C@@H]2O` [Paclitaxel] was run?
A: Its value is “clear effect”.

Source: patent publication US20230043948A1, “METHOD AND KIT FOR CELL GROWTH” (PRECISION CANCER TECHNOLOGIES INC ., priority 2019, published 2023)
